Experiment [1] has as its system NQO1 mRNA in BEAS-2B cells. Nature of the experiment: Beas2B NQO1 mRNA cell based assay. To be noted: Homo sapiens, BEAS-2B, 24 h, 24 h compound treatment, increase in NQO1 mRNA vs vehicle (0.1% DMSO), read-out: EC50. Set-up: species or system human. The essentials: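 Relative NQO1 transcript level derived by ΔΔCT with human β-actin as internal control, using direct-lysate one-step RT-qPCR. Cells were BEAS-2B, plated overnight then treated with compound for 24 h.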

Experiment [2] addresses human KEAP1 (N-term, residues 321-609) (Homo sapiens, UniProt Q14145). Nature of the experiment: biochemical.
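Wherever IC50 is given: fluorescence polarization competition assay of Kelch domain binding to NRF2, 12-point 1:3 dilution series from 10 µM, read after 1 h at room temperature, floor 10 nM.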

human KEAP1 (N-term, residues 321-609), sequence (Q14145 321-609): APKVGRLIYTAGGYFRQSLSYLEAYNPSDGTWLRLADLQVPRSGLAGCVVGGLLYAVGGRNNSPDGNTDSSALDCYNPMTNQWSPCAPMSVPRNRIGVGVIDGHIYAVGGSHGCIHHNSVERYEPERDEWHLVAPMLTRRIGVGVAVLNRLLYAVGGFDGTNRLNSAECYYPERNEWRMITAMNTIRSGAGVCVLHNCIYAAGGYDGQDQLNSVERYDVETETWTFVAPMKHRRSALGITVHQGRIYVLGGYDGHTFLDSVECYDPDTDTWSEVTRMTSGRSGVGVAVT

Take `Cc1cnc(N2CC[C@H](Oc3ccc(Br)c4c3[C@@H](CN3Cc5ccccc5C3=O)N(C(=O)[C@@H]3CCCC[C@@H]3C(=O)O)CC4)C2)s1` [Example 21, (1S,2R)-2-((S)-5-bromo-8-(((S)-1-(5-methylthiazol-2-yl)pyrrolidin-3-yl)oxy)-1-((1-oxoisoindolin-2-yl)methyl)-1,2,3,4-tetrahydroisoquinoline-2-carbonyl)cyclohexane-1-carboxylic acid]: the EC50 (as a rule, the concentration at which the effect is half-maximal) in experiment [1] was found to be 7.9 nM. Moreover, the IC50 – broadly, the point on the concentration scale where inhibition reaches its midpoint – in experiment [2] worked out at 4.7 nM.
On the same counts, the results for `Cn1cc(COc2ccc(Br)c3c2[C@@H](CN2Cc4ccccc4C2=O)N(C(=O)[C@@H]2CCCC[C@@H]2C(=O)O)CC3)nn1` [Example 34, (1S,2R)-2-((S)-5-bromo-8-((1-methyl-1H-1,2,3-triazol-4-yl)methoxy)-1-((1-oxoisoindolin-2-yl)methyl)-1,2,3,4-tetrahydroisoquinoline-2-carbonyl)cyclohexane-1-carboxylic acid] are 3.3 nM and 5 nM.
On the same counts, the results for `CCn1cnc(COc2ccc(Br)c3c2[C@@H](CN2Cc4ccccc4C2=O)N(C(=O)[C@@H]2CCCC[C@@H]2C(=O)O)CC3)c1C#N` [Example 43, (1S,2R)-2-((S)-5-bromo-8-((5-cyano-1-ethyl-1H-imidazol-4-yl)methoxy)-1-((1-oxoisoindolin-2-yl)methyl)-1,2,3,4-tetrahydroisoquinoline-2-carbonyl)cyclohexane-1-carboxylic acid] are 18 nM and 10 nM.
On the same counts, the results for `C[C@@H]1CC(=O)N(C[C@@H]2c3c(OCc4nnn(C)c4C4CC4)ccc(Cl)c3CCN2C(=O)[C@@H]2CCCC[C@]2(C)C(=O)O)C1` [Example 163, (1S,2R)-2-((S)-5-chloro-8-((5-cyclopropyl-1-methyl-1H-1,2,3-triazol-4-yl)methoxy)-1-(((R)-4-methyl-2-oxopyrrolidin-1-yl)methyl)-1,2,3,4-tetrahydroisoquinoline-2-carbonyl)-1-methylcyclohexane-1-carboxylic acid] are 0.78 nM and 5.3 nM.
As to `[2H][C@@H]1CC[C@](C)(C(=O)O)[C@H](C(=O)N2CCc3c(Cl)ccc(OCc4nnn(C)c4C(F)F)c3[C@H]2CN2CC3(CC3)CC2=O)C1` [Example 219, (1S,2R,4R)-2-((S)-5-chloro-8-((5-(difluoromethyl)-1-methyl-1H-1,2,3-triazol-4-yl)methoxy)-1-((6-oxo-5-azaspiro[2.4]heptan-5-yl)methyl)-1,2,3,4-tetrahydroisoquinoline-2-carbonyl)-1-methylcyclohexane-1-carboxylic-4-d acid], in experiment [1], the half-maximal effective concentration (EC50) worked out at 0.18 nM. For the same compound, the half-maximal inhibitory concentration (IC50) in experiment [2] stood at 5.3 nM.
For `Cc1nnc(COc2ccc(Cl)c3c2[C@@H](CN2CCCC2=O)N(C(=O)[C@@H]2CCCC[C@@H]2C(=O)O)CC3)n1C` [Example 103, (1S,2R)-2-((S)-5-chloro-8-((4,5-dimethyl-4H-1,2,4-triazol-3-yl)methoxy)-1-((2-oxopyrrolidin-1-yl)methyl)-1,2,3,4-tetrahydroisoquinoline-2-carbonyl) cyclohexane-1-carboxylic acid], in that order: 67 nM and 6.7 nM.
On the same counts, the results for `C[C@]1(C(=O)O)CCCC[C@H]1C(=O)N1CCc2c(Cl)cc(F)c(OCc3nnn4c3CCC4)c2[C@H]1CN1CC2(CC2)CC1=O` [Example 146, (1S,2R)-2-((S)-5-chloro-8-((5,6-dihydro-4H-pyrrolo[1,2-c][1,2,3]triazol-3-yl)methoxy)-7-fluoro-1-((6-oxo-5-azaspiro[2.4]heptan-5-yl)methyl)-1,2,3,4-tetrahydroisoquinoline-2-carbonyl)-1-methylcyclohexane-1-carboxylic acid] are 0.23 nM and 5.7 nM.
Consider `C[C@@H]1CCN(C[C@@H]2c3c(OCc4nnn(C)c4C(F)F)ccc(Cl)c3CCN2C(=O)[C@@H]2CCC[C@]2(C)C(=O)O)C1=O` [Example 113, (1S,2R)-2-((1S)-5-Chloro-8-((5-(difluoromethyl)-1-methyl-1H-1,2,3-triazol-4-yl)methoxy)-1-(((R)-3-methyl-2-oxopyrrolidin-1-yl)methyl)-1,2,3,4-tetrahydroisoquinoline-2-carbonyl)-1-methylcyclopentane-1-carboxylic acid], for which, in experiment [1], the EC50 worked out at 240 nM. For the same compound, the half-inhibitory concentration (IC50) in experiment [2] stood at 10 nM.
For `Cn1cnc(COc2ccc(Br)c3c2[C@@H](CN2Cc4ccccc4C2=O)N(C(=O)[C@@H]2CCCC[C@@H]2C(=O)O)CC3)c1` [Example 25, (1S,2R)-2-((S)-5-Bromo-8-((1-methyl-1H-imidazol-4-yl)methoxy)-1-((1-oxoisoindolin-2-yl)methyl)-1,2,3,4-tetrahydroisoquinoline-2-carbonyl)cyclohexane-1-carboxylic acid 2,2,2-trifluoroacetic acid], in that order: 150 nM and 15 nM.
For `C[C@H](CC(=O)O)C(=O)N1CCc2c(Cl)ccc(OCc3noc4ccccc34)c2[C@H]1CN1CCCC1=O` [Example 80, (R)-4-((S)-8-(Benzo[d]isoxazol-3-ylmethoxy)-5-chloro-1-((2-oxopyrrolidin-1-yl)methyl)-3,4-dihydroisoquinolin-2(1H)-yl)-3-methyl-4-oxobutanoic acid], in that order: 110 nM and 4.8 nM.
For `Cc1ccc(OCc2nnn(C)c2C(F)(F)F)c2c1CCN(C(=O)[C@@H]1CCCC[C@]1(C)C(=O)O)[C@@H]2CN1CCCC1=O` [Example 174, (1S,2R)-1-Methyl-2-((S)-5-methyl-8-((1-methyl-5-(trifluoromethyl)-1H-1,2,3-triazol-4-yl)methoxy)-1-((2-oxopyrrolidin-1-yl)methyl)-1,2,3,4-tetrahydroisoquinoline-2-carbonyl)cyclohexane-1-carboxylic acid], in that order: 6.6 nM and 11 nM.
As to `C[C@]1(C(=O)O)CCCC[C@H]1C(=O)N1CCc2c(Cl)ccc(OCc3cncnc3C(F)(F)F)c2[C@H]1CN1CC2(CC2)CC1=O` [Example 171, (1S,2R)-2-((S)-5-chloro-1-((6-oxo-5-azaspiro[2.4]heptan-5-yl)methyl)-8-((4-(trifluoromethyl)pyrimidin-5-yl)methoxy)-1,2,3,4-tetrahydroisoquinoline-2-carbonyl)-1-methylcyclohexane-1-carboxylic acid], in experiment [1], the EC50 was found to be 19 nM. This compound also had a half-inhibitory concentration (IC50) in experiment [2] of 6.4 nM.
Consider `Cc1cc(COc2ccc(Cl)c3c2[C@@H](CN2CCCC2=O)N(C(=O)[C@@H]2CCCC[C@@H]2C(=O)O)CC3)ns1` [Example 70, (1S,2R)-2-((S)-5-Chloro-8-((5-methylisothiazol-3-yl)methoxy)-1-((2-oxopyrrolidin-1-yl)methyl)-1,2,3,4-tetrahydroisoquinoline-2-carbonyl) cyclohexane-1-carboxylic acid], for which, in experiment [1], the EC50 was determined as 55 nM. Further, the 50% inhibitory concentration (IC50) in experiment [2] worked out at 5.9 nM.
For `Cc1onc(COc2ccc(Cl)c3c2[C@@H](CN2CCCC2=O)N(C(=O)[C@@H]2CCCC[C@]2(C)C(=O)O)CC3)c1C` [Example 124, (1S,2R)-2-((S)-5-chloro-8-((4,5-dimethylisoxazol-3-yl)methoxy)-1-((2-oxopyrrolidin-1-yl)methyl)-1,2,3,4-tetrahydroisoquinoline-2-carbonyl)-1-methylcyclohexane-1-carboxylic acid], in that order: 6.8 nM and 8.4 nM.

(Values after patent US12098148B2, “Therapeutic compounds” (C4X Discovery Limited, priority 2018, dated 2024).)
